The source of these data is patent publication US8362008B2 (The University Of Edinburgh, priority 2007, dated 2013).

Structures are written as SMILES.

The target of the assay is T1, human 11β-HSD1 enzyme (Homo sapiens, UniProt P28845).
T1 construct: stably transfected with a construct containing the full-length gene coding for the human 11β-HSD1 enzyme; expressed in transfected cells; host or cells: HEK293 (HEK293/11β-HSD1 cells)
Nature of the assay: Cellular in vitro 11β-HSD1 enzyme inhibition assay (SPA, HEK293/11β-HSD1 cells). Type of assay: cell-based. The method, then: Cellular In Vitro 11β-HSD1 Enzyme Inhibition Assay
Compounds were assessed by a Scintillation Proximity Assay (SPA) performed according to the following protocol:
HEK293 cells were stably transfected with a construct containing the full-length gene coding for the human 11β-HSD1 enzyme to create HEK293/11β-HSD1 cells. Cells were routinely cultured in DMEM containing 10% calf foetal serum, 1% glutamine, and 1% penicillin and streptomycin. Prior to assay, cells were plated at 2×10^4 cells/well in 96-well poly-D-Lys coated flat-bottomed microplates and incubated in 5% CO2, 95% O2 at 37° C. for 24 hours. The media in each well was removed immediately before assay.
Compounds to be tested were dissolved in DMSO at 10 mM and serially diluted into water containing 10% DMSO. Diluted compounds at a volume of 10 μL were added to wells of a 96-well V-bottomed microplate. […] This solution (100 μL/well) was transferred to the plate containing the cells. The plate was then incubated in 5% CO2, 95% O2 at 37° C. for 2 hours.
Following this incubation, 50 μL of the assay solution was transferred to each well of a 96-well scintillation microplate. A mixture consisting of anti-mouse YSi SPA beads, pre-mixed with anti-cortisol antibody in assay buffer (50 mM Tris.HCl, pH 7.0; 300 mM NaCl; 1 mM EDTA, 5% glycerol) was prepared and 50 μL added to each well of the scintillation microplate. An adhesive strip was applied to the microplate and the plate gently shaken for at least 2 hours at room temperature, and then spun briefly on a low speed centrifuge. The plate was read on a scintillation counter suitable for 96-well microplates. For the calculation of percentage inhibition, a series of wells were added to the plate that represented the assay maximum and the assay minimum: one set that contained substrate without cells (mimimum) and another set that contained substrate and cells without any compound (maximum).
The calculation of median inhibitory concentration (IC50) values for the compounds was performed using GraphPad Prism® software. Dose-response curves for each compound were plotted as fractional inhibition and data fitted to the four parameter logistic equation.

[1] abbreviates: HEK293, more than 1000 nM (1.0 μM) and less than or equal to 30 μM.
Setting [2] is: HEK293, less than or equal to 1000 nM (1 μM).

T1 sequence (P28845 whole entry): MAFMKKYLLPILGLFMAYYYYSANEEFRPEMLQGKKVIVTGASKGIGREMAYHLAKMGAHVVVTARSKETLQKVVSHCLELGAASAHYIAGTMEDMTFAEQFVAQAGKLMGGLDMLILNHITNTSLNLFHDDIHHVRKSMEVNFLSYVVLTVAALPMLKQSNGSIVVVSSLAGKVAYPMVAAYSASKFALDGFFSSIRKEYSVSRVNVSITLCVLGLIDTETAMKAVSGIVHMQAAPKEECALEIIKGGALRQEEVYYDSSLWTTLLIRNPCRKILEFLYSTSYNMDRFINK

Under setting [1], `CC1(C)CC2CC(C)(CN2C(=O)c2csc(C3CCNCC3)c2)C1` (single isomer, unassigned) [CC-076, (5-Piperidin-4-yl-thiophen-3-yl)-(1,3,3-trimethyl-6-aza-bicyclo[3.2.1]oct-6-yl)-methanone] displayed a 50% inhibitory concentration (IC50) of 1000 to 30000 nM.

`CCc1cc(C(=O)N2CCCCCC2)c(Br)s1` [AA-005]: under setting [2], the IC50 is at most 1000 nM. In the case of `CC(=O)N1CC=C(c2cc(C(=O)N3CCCCCC3)cs2)CC1` [CC-016, 1-{4-[4-(Azepane-1-carbonyl)-thiophen-2-yl]-3,6-dihydro-2H-pyridin-1-yl}-ethanone], the IC50 under setting [1] was in the range of 1000 to 30000 nM. Consider `CC1(C)CCCN(C(=O)c2csc(N3CCOCC3)c2)C1` [CC-010, (3,3-Dimethyl-piperidin-1-yl)-(5-morpholin-4-yl-thiophen-3-yl)-methanone], for which the 50% inhibitory concentration (IC50) under setting [1] was 1000 to 30000 nM. `O=C(OCc1ccccc1)N1CCC(c2cc(C(=O)N3CCCCCC3)c(Cl)s2)CC1` [CC-009, 4-[4-(Azepane-1-carbonyl)-5-chloro-thiophen-2-yl]-piperidine-1-carboxylic acid benzyl ester] showed an IC50 under setting [1] of 1000 to 30000 nM.

In the case of `O=C(c1csc(C2CCCNC2)c1)N1CCCCCC1` (stereo not drawn) [CC-015, Azepan-1-yl-(5-piperidin-3-yl-thiophen-3-yl)-methanone], the half-maximal inhibitory concentration (IC50) under setting [1] was 1000 to 30000 nM. The compound `Cc1cc(C(=O)N2CCC(c3cc(C(=O)N4CCCC5CCCCC54)cs3)CC2)no1` (stereo not drawn) [CC-109] displayed an IC50 under setting [1] of 1000 to 30000 nM. Under setting [2], `CC(C)(C(=O)N1CCCC1)N1CCC(c2cc(C(=O)N3CCCC4CCCCC43)cs2)CC1` (stereo not drawn) [CC-170] yielded an IC50 of at most 1000 nM. In the case of `O=C(c1csc(C2CCNCC2)c1)N1CCC[C@@H]2CCCC[C@H]21` (relative stereo) [CC-034, trans-(Octahydro-quinolin-1-yl)-(5-piperidin-4-yl-thiophen-3-yl)-methanone], the half-inhibitory concentration (IC50) under setting [1] is 1000 to 30000 nM. With `CC1(C)CCCN(C(=O)c2csc(C3CCNCC3)c2)C1` [CC-013], the IC50 under setting [1] was 1000 to 30000 nM.

Compound `O=C1CCCN1CCCN1CCC(c2cc(C(=O)N3CCCC4CCCCC43)cs2)CC1` (stereo not drawn) [CC-156, cis-{1-(3-{4-[4-(Octahydro-quinoline-1-carbonyl)-thiophen-2-yl]-piperidin-1-yl}-propyl)-pyrrolidin-2-one] came in with a half-maximal inhibitory concentration (IC50) under setting [1] of 1000 to 30000 nM. `CC(=O)N1CC=C(c2cc(C(=O)N3CCCC4CCCCC43)cs2)CC1` (stereo not drawn) [CC-086]: the IC50 under setting [2] was at most 1000 nM. On to `O=C(c1csc(C2CCNCC2)c1)N1CCCC2CCCCC21` (single isomer, unassigned) [CC-045, trans-(Octahydro-quinolin-1-yl)-(5-piperidin-4-yl-thiophen-3-yl)-methanone], for which the IC50 under setting [1] lay within 1000 to 30000 nM. With `CS(=O)(=O)NCC(=O)N1CCC(c2cc(C(=O)N3CCCC4CCCCC43)cs2)CC1` (stereo not drawn) [CC-148], under setting [2], the half-maximal inhibitory concentration (IC50) is at most 1000 nM.

In turn, `NC(=O)CN1CCC(c2cc(C(=O)N3CCCC4CCCCC43)cs2)CC1` (stereo not drawn) [CC-108] yielded a half-maximal inhibitory concentration (IC50) under setting [2] of at most 1000 nM.

Take `COCC(=O)N1CCC(c2cc(C(=O)N3CCCC4CCCCC43)cs2)CC1` (stereo not drawn) [CC-083]: under setting [2], the 50% inhibitory concentration (IC50) is at most 1000 nM.

`O=C(c1ccno1)N1CCC(c2cc(C(=O)N3CCCC4CCCCC43)cs2)CC1` (stereo not drawn) [CC-051] showed a half-maximal inhibitory concentration (IC50) under setting [2] of at most 1000 nM. Under setting [2], `CCCCCc1cc(C(=O)N2CCCC3CCCCC32)cs1` (stereo not drawn) [AA-011] had an IC50 of at most 1000 nM. `O=C(c1csc(C2CCNCC2)c1)N1CCCC2(CCCCC2)C1` [CC-079] registered a half-inhibitory concentration (IC50) under setting [1] of 1000 to 30000 nM. `CC1(C)CCN(C(=O)c2csc(C3CCOCC3)c2)CC1` [CC-011] displayed an IC50 under setting [1] of 1000 to 30000 nM. As for `CC(C)(C(N)=O)N1CCC(c2cc(C(=O)N3CCC[C@@H]4CCCC[C@@H]43)cs2)CC1` (relative stereo) [CC-158, cis-2-{4-[4-(Octahydro-quinoline-1-carbonyl)-thiophen-2-yl]-piperidin-1-yl}-isobutyramide], the IC50 under setting [2] was at most 1000 nM. `C[C@@H]1CN(C(=O)c2csc(C3CCNCC3)c2)C[C@H](C)O1` [CC-019] yielded an IC50 under setting [1] of 1000 to 30000 nM.

In the case of `O=C(c1csc(C2CCNCC2)c1)N1CCC(F)(F)C2CCCCC21` (stereo not drawn) [CC-131], under setting [1], the concentration for half-maximal inhibition (IC50) was in the range of 1000 to 30000 nM.

`O=C(c1csc(C2CCN(c3ccccn3)CC2)c1)N1CCCC2CCCCC21` (stereo not drawn) [CC-120] had a concentration for half-maximal inhibition (IC50) under setting [1] of 1000 to 30000 nM.

For orientation: IC50 means the concentration that gives 50% inhibition. Read a high IC50 as lower potency.
